Source: patent publication US8530489B2 (Vertex Pharmaceuticals Incorporated, priority 2006, dated 2013)

Each compound was assayed against PLK1 (Homo sapiens, UniProt P53350) (assay: PLK1 Inhibition Assay I (radioactive-phosphate incorporation)). Conditions: Ki(app); PLK1 Inhibition Assay I or II (table does not say which).
Format: biochemical
Procedure, shortened: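 Ki(app) values came from non-linear regression of initial rates after background subtraction, with phosphopeptide measured by phosphocellulose filter binding and scintillation counting. PLK1 at 2 nM was preincubated with compound (typically from 10 μM, 2-fold dilutions) for 10 min, then run 240 min at 25° C with 350 μM [γ-33P]ATP and 450 μM peptide substrate in HEPES pH 7.5 buffer.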

PLK1, sequence (P53350 whole entry): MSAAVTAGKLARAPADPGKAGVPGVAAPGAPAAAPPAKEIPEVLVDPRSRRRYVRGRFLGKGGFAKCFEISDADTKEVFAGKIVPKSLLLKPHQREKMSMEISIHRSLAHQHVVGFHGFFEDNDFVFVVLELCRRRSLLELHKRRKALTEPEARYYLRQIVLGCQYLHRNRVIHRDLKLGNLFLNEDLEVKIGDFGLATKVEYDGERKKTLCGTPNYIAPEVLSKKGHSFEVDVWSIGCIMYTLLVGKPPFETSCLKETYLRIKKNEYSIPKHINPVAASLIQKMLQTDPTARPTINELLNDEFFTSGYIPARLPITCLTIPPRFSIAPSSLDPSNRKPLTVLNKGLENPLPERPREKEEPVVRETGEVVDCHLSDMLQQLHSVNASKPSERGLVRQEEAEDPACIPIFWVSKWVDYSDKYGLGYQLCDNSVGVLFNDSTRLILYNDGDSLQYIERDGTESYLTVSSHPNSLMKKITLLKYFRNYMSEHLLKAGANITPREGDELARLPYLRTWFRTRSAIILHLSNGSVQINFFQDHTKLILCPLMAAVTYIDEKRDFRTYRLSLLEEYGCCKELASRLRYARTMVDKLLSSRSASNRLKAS

`C[C@@H](Nc1ncc(C#N)c(-c2c[nH]c3ncc(C(F)(F)F)cc23)n1)c1ccc(NS(C)(=O)=O)c(F)c1` [Compound I-177, N-(4-((1R)-1-(5-cyano-4-(5-(trifluoromethyl)-1H-pyrrolo[2,3-b]pyridin-3-yl)pyrimidin-2-ylamino)ethyl)-2-fluorophenyl)methanesulfonamide] and `C[C@@H](Nc1ncc(C#N)c(-c2c[nH]c3ncc(C(F)(F)F)cc23)n1)c1ccc(NS(C)(=O)=O)cc1` [Compound I-136, N-(4-((1R)-1-(5-cyano-4-(5-(trifluoromethyl)-1H-pyrrolo[2,3-b]pyridin-3-yl)pyrimidin-2-ylamino)ethyl)phenyl)methanesulfonamide] cannot be ordered by Ki: < 3 nM for the first, < 3 nM for the second.

First: N#Cc1cnc(SC2CCCCC2)nc1-c1c[nH]c2ncc(C(F)(F)F)cc12 [II-13, 2-(cyclohexylthio)-4-(5-(trifluoromethyl)-1H-pyrrolo[2,3-b]pyridin-3-yl)pyrimidine-5-carbonitrile]
Second: N#Cc1cnc(NC2CCOCC2)nc1-c1c[nH]c2ncc(C(F)(F)F)cc12 [Compound I-74, 2-(tetrahydro-2H-pyran-4-ylamino)-4-(5-(trifluoromethyl)-1H-pyrrolo[2,3-b]pyridin-3-yl)pyrimidine-5-carbonitrile]
The Ki of the first is higher: > 40 nM for the first, 3 to 40 nM for the second.

First: N#Cc1cnc(NCc2ccc3c(c2)CCO3)nc1-c1c[nH]c2ncc(C(F)(F)F)cc12 [Compound I-62, 2-((2,3-dihydrobenzofuran-5-yl)methylamino)-4-(5-(trifluoromethyl)-1H-pyrrolo[2,3-b]pyridin-3-yl)pyrimidine-5-carbonitrile]
Second: N#Cc1cnc(NCc2ccccc2)nc1-c1c[nH]c2ncc(C(F)(F)F)cc12 [Compound I-1, 2-(benzylamino)-4-(5-(trifluoromethyl)-1H-pyrrolo[2,3-b]pyridin-3-yl)pyrimidine-5-carbonitrile]
The Ki of the first is lower: 3 to 40 nM for the first, > 40 nM for the second.

First: CCS(=O)(=O)N1CCC(C(C)Nc2ncc(C#N)c(-c3c[nH]c4ncc(C(F)(F)F)cc34)n2)CC1 (stereo not drawn) [Compound I-153, 2-(1-(1-(ethylsulfonyl)piperidin-4-yl)ethylamino)-4-(5-(trifluoromethyl)-1H-pyrrolo[2,3-b]pyridin-3-yl)pyrimidine-5-carbonitrile]
Second: C[C@@H](Nc1ncc(C#N)c(-c2c[nH]c3ncc(C(F)(F)F)cc23)n1)C1CCN(C(=O)[C@H](N)CCCN)CC1 [Compound I-252, 2-((R)-1-(1-((R)-2,5-diaminopentanoyl)piperidin-4-yl)ethylamino)-4-(5-(trifluoromethyl)-1H-pyrrolo[2,3-b]pyridin-3-yl)pyrimidine-5-carbonitrile]
The Ki of the first is lower: < 3 nM for the first, 3 to 40 nM for the second.

First: N#Cc1cnc(NC[C@H]2CC[C@@H](O)C2)nc1-c1c[nH]c2ncc(C(F)(F)F)cc12 [Compound I-81, 2-(((1S,3R)-3-hydroxycyclopentyl)methylamino)-4-(5-(trifluoromethyl)-1H-pyrrolo[2,3-b]pyridin-3-yl)pyrimidine-5-carbonitrile]
Second: CC(=O)N[C@H]1CC[C@H]([C@@H](C)Nc2ncc(C#N)c(-c3c[nH]c4ncc(C(F)(F)F)cc34)n2)CC1 [Compound I-208, N-((1R,4r)-4-((1R)-1-(5-cyano-4-(5-(trifluoromethyl)-1H-pyrrolo[2,3-b]pyridin-3-yl)pyrimidin-2-ylamino)ethyl)cyclohexyl)acetamide]
The Ki of the first is higher: 3 to 40 nM for the first, < 3 nM for the second.

First: C[C@@H](O)C(=O)N[C@H]1CC[C@H]([C@@H](C)Nc2ncc(C#N)c(-c3c[nH]c4ncc(C(F)(F)F)cc34)n2)CC1 [Compound I-265, Trans-(2R)—N-(4-((1R)-1-(5-cyano-4-(5-(trifluoromethyl)-1H-pyrrolo[2,3-b]pyridin-3-yl)pyrimidin-2-ylamino)ethyl)cyclohexyl)-2-hydroxypropanamide]
Second: CC(C)[C@H](CN1CCOCC1)Nc1ncc(C#N)c(-c2c[nH]c3ncc(C(F)(F)F)cc23)n1 [Compound I-128, 2-((R)-3-methyl-1-morpholinobutan-2-ylamino)-4-(5-(trifluoromethyl)-1H-pyrrolo[2,3-b]pyridin-3-yl)pyrimidine-5-carbonitrile]
The Ki of the first is lower: < 3 nM for the first, 3 to 40 nM for the second.

First: C[C@@H](Nc1ncc(C#N)c(-c2c[nH]c3ncc(C(F)(F)F)cc23)n1)c1ccc(N2CCN3CCC[C@@H]3C2)nc1 [Compound I-298, 2-((R)-1-(6-((R)-hexahydropyrrolo[1,2-a]pyrazin-2(1H)-yl)pyridin-3-yl)ethylamino)-4-(5-(trifluoromethyl)-1H-pyrrolo[2,3-b]pyridin-3-yl)pyrimidine-5-carbonitrile]
Second: CC(Nc1ncc(C#N)c(-c2c[nH]c3ncc(C(F)(F)F)cc23)n1)c1ccc(O[C@@H]2CCN(C)C2)nc1 (stereo partly drawn) [Compound I-271, 2-(1-(6-((R)-1-methylpyrrolidin-3-yloxy)pyridin-3-yl)ethylamino)-4-(5-(trifluoromethyl)-1H-pyrrolo[2,3-b]pyridin-3-yl)pyrimidine-5-carbonitrile]
The Ki of the first is lower: < 3 nM for the first, 3 to 40 nM for the second. The first binds more tightly here.

`CC(Nc1ncc(C#N)c(-c2c[nH]c3ncc(C(F)(F)F)cc23)n1)c1ccc(C2(O)CCN(C)CC2)nc1` (stereo not drawn) [Compound I-266, 2-(1-(6-(4-hydroxy-1-methylpiperidin-4-yl)pyridin-3-yl)ethylamino)-4-(5-(trifluoromethyl)-1H-pyrrolo[2,3-b]pyridin-3-yl)pyrimidine-5-carbonitrile] and `CC(Nc1ncc(C#N)c(-c2c[nH]c3ncc(C(F)(F)F)cc23)n1)c1ccc(N(C)C)nc1` (stereo not drawn) [Compound I-143, 2-(1-(6-(dimethylamino)pyridin-3-yl)ethylamino)-4-(5-(trifluoromethyl)-1H-pyrrolo[2,3-b]pyridin-3-yl)pyrimidine-5-carbonitrile] cannot be ordered by Ki: < 3 nM for the first, < 3 nM for the second.

`CC(C)Oc1ccc(CNc2ncc(C#N)c(-c3c[nH]c4ncc(C(F)(F)F)cc34)n2)cc1` [Compound I-41, 2-(4-isopropoxybenzylamino)-4-(5-(trifluoromethyl)-1H-pyrrolo[2,3-b]pyridin-3-yl)pyrimidine-5-carbonitrile] and `N#Cc1cnc(NCCc2ccccc2)nc1-c1c[nH]c2ncc(C(F)(F)F)cc12` [Compound I-7, 2-(phenethylamino)-4-(5-(trifluoromethyl)-1H-pyrrolo[2,3-b]pyridin-3-yl)pyrimidine-5-carbonitrile] cannot be ordered by Ki: > 40 nM for the first, > 40 nM for the second.

`CC(Nc1ncc(C#N)c(-c2c[nH]c3ncc(C(F)(F)F)cc23)n1)C1(F)CCN(C(=O)CN)CC1` (stereo not drawn) [Compound I-234, 2-(1-(1-(2-aminoacetyl)-4-fluoropiperidin-4-yl)ethylamino)-4-(5-(trifluoromethyl)-1H-pyrrolo[2,3-b]pyridin-3-yl)pyrimidine-5-carbonitrile] and `C[C@H](Nc1ncc(C#N)c(-c2c[nH]c3ncc(C(F)(F)F)cc23)n1)c1ccc(O[C@H]2CCN(C)C2)cc1` [Compound I-161, 2-((S)-1-(4-((S)-1-methylpyrrolidin-3-yloxy)phenyl)ethylamino)-4-(5-(trifluoromethyl)-1H-pyrrolo[2,3-b]pyridin-3-yl)pyrimidine-5-carbonitrile] cannot be ordered by Ki: < 3 nM for the first, < 3 nM for the second.

For `CC(C)(Nc1ncc(C#N)c(-c2c[nH]c3ncccc23)n1)C(=O)NCC(F)(F)F` [IA-10, 2-(5-cyano-4-(1H-pyrrolo[2,3-b]pyridin-3-yl)pyrimidin-2-ylamino)-2-methyl-N-(2,2,2-trifluoroethyl)propanamide], the Ki was > 40 nM.
